This data set is described as follows: method code SF-HPLC, from DOI: 10.1248/cpb.46.274.

The structures appear in SMILES notation.

By logP is commonly meant a log measure of how a compound divides between an organic and an aqueous phase.

The compound `CC(=O)/C=C/c1ccc(C(F)(F)F)cc1` had a log partition coefficient (logP) of 3.13. Compound `N#Cc1cccc(/C=C/C(=O)C(F)(F)F)c1` registered a logP of 2.45. Compound `CC(=O)C=Cc1ccc(OC(C)=O)cc1` came in with a log partition coefficient (logP) of 1.63. The compound `CC(=O)/C=C/c1ccc(O)cc1` gave a logP of 1.86. Under `CC(=O)/C=C/c1cccc(Cl)c1` stands 2.81; under `COc1ccc(C=CC(=O)C(F)(F)F)cc1`, 3.33; under `CC(=O)/C=C/c1ccccc1C(F)(F)F`, 3.14.

`COc1cccc(/C=C/C(C)=O)c1` yielded a logP of 2.27. Under `CC(=O)/C=C/c1ccc(N(C)C)cc1` stands 2.66. `CC(=O)C=Cc1ccc(C)cc1` returned a logP of 2.65.

`COc1cccc(C=CC(=O)C(F)(F)F)c1` displayed a log partition coefficient (logP) of 3.05. `CC(=O)/C=C/c1cccc(C)c1` registered a logP of 2.68. With `CCOc1ccc(C=CC(C)=O)cc1`, the lipophilicity (logP) came out at 2.73. Under `CC(=O)/C=C/c1cccc(C(F)(F)F)c1` stands 3.03; under `CC(=O)/C=C/c1ccccc1Cl`, 2.85; under `CC(=O)/C=C/c1ccccc1F`, 2.34.

`CC(=O)C=Cc1cccc(C#N)c1` came in with a lipophilicity (logP) of 1.59.

`O=C(C=Cc1ccccc1)C(F)(F)F` had a logP of 3.01.

The compound `CC(=O)C=Cc1ccc(C#N)cc1` came in with a lipophilicity (logP) of 1.64. `CCc1ccc(/C=C/C(C)=O)cc1` showed a log partition coefficient (logP) of 3.26. In the case of `N#Cc1ccc(C=CC(=O)C(F)(F)F)cc1`, the logP is 2.42. `COc1ccc(/C=C/C(C)=O)cc1` returned a logP of 2.25. In turn, `CC(=O)/C=C/c1cccc([N+](=O)[O-])c1` yielded a logP of 1.88. Under `CC(=O)/C=C/c1cccc(Br)c1` stands 3.02. `CC(=O)C=Cc1ccc(F)cc1` showed a log partition coefficient (logP) of 2.22. For the compound `CC(=O)C=Cc1cccc(F)c1`, the logP was determined as 2.25. Take `COc1ccccc1C=CC(=O)C(F)(F)F`: the logP turned out to be 3.39.

`CC(=O)/C=C/c1ccc(Cl)cc1` registered a log partition coefficient (logP) of 2.8. With `CC(=O)/C=C/c1ccccc1C`, the log partition coefficient (logP) was 2.6.

The compound `O=C(C=Cc1cccc(Cl)c1)C(F)(F)F` gave a logP of 3.58. Under `O=C(C=Cc1cccc([N+](=O)[O-])c1)C(F)(F)F` stands 2.66; under `O=C(C=Cc1ccc(Cl)cc1)C(F)(F)F`, 3.63; under `CC(=O)C=Cc1ccc(Br)cc1`, 3.03. As for `CC(=O)/C=C/c1ccccc1O`, the figure is 2.19.

In turn, `COc1ccccc1/C=C/C(C)=O` gave a lipophilicity (logP) of 2.42. `O=C(C=Cc1ccccc1Cl)C(F)(F)F` displayed a logP of 3.5.

The values above are taken from the SangsterLogP compilation.
